Literature values, collected in patent CN110812364A, “半乳寡糖及其衍生物在作为SGLTs抑制剂中的应用” (Ocean University of China, priority 2019, dated 2020).

Molecular target: T1, SGLT2 (Homo sapiens, UniProt P31639)
T1 sequence (P31639 1-672): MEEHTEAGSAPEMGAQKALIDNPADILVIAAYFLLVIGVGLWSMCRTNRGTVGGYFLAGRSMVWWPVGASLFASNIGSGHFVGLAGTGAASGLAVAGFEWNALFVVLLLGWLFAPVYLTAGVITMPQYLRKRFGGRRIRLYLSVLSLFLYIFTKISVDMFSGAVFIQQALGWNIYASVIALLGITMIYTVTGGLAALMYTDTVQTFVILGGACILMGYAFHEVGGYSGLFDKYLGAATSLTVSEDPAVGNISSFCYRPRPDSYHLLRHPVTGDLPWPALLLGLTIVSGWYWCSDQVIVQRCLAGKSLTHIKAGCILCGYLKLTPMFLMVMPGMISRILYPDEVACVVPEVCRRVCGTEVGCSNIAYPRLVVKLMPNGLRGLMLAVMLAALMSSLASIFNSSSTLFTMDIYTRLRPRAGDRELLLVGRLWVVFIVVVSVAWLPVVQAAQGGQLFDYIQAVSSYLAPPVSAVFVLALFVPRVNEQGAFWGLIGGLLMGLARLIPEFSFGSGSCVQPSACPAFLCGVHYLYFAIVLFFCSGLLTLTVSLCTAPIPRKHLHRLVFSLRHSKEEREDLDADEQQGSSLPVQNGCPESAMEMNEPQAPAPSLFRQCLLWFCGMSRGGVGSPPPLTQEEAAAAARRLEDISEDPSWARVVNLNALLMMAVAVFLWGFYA
Conditions: dual inhibitor of SGLT1 and SGLT2, background section

For `O=C(CCc1ccc(O)cc1)c1c(O)cc(O)cc1O[C@@H]1O[C@H](CO)[C@@H](O)[C@H](O)[C@H]1O` [根皮苷, 根皮苷(phloridzin)], the “selectivity for SGLT1 and SGLT2” value is given as “选择性较差”.
